# Patent US12564638B2 (SHANGHAITECH UNIVERSITY, priority 2019, dated 2026)
# Like-named read-outs stand apart in the source and are kept apart here.
# What was measured:
# [1] = test system: HCC827 cells (EGFR Exon19 del, non-small cell lung cancer cells); experiment: Cell viability assay (WST/CCK8), HCC827 cells; format: cell-based; settings: Homo sapiens, HCC827, 72 h, HCC827 (Exon19 Del), 72 hours, read-out: IC50 (half inhibitory concentration)
# Summary of the method: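 Plated 3 000 cells/well in complete RPMI1640 the day before dosing; controls were DMSO (negative) and EGFR TKIs (positive).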
# [2] = test system: PC9 cells (EGFR Exon 19 del, non-small cell lung cancer cells); experiment: Cell viability assay (WST/CCK8), PC9 cells; format: cell-based; settings: Homo sapiens, PC-9, PC9 (Exon19 Del), 72 hours, read-out: IC50 (half inhibitory concentration)
# Text: The cell lines with abnormal EGFR expression used are as follows: • HCC827 cells (EGFR Exon19 del, non-small cell lung cancer cells); • PC9 cells (EGFR Exon 19 del, non-small cell lung cancer cells); • PC9BracA1 (EGFR Exon 19 del+T790M, non-small cell lung cancer cells) • H1975 (EGFR Exon T790M+L858R mutation, non-small cell lung cancer cell line) • BT474 cells (HER2 positive breast cancer cells)
# All of the half inhibitory concentrations (IC50) of these compounds of the present invention were determined with WST reagent from Fuyuan Biotec Company. The specific experiment procedures are as follows: Cancer cells were planted in 96-well-plate at the density of 3 000 cells per well with 100 μL RPMI1640 completed culture medium. In the next day, compounds with indicated concentrations were added to the cells, DMSO was used as the negative control and the EGFR TKIs were used to treat cells as the positive groups. After 72 hours drug treatment, cell viability was measured by using the WST reagent following the instructions.
# The cells were treated with the gradient concentration of these compounds (the maximum concentration: 10 μM; 3-fold dilution ratio, 10 concentration gradients) for 72 hours and then incubated with the WST (CCK8) reagent to determine the cell viability.
# [3] = Table 6, canertinib-based compounds, WST
SMILES,IC50 ([1]; WST (CCK8)),IC50 ([2]; WST (CCK8)),"IC50 [1, 3]","IC50 [2, 3]"
"COc1cc2ncnc(Nc3ccc(F)c(Cl)c3)c2cc1NC(=O)/C=C/CN1CCN(C(=O)CCC(=O)N[C@H](C(=O)N2C[C@H](O)C[C@H]2C(=O)NCc2ccc(-c3scnc3C)cc2)C(C)(C)C)CC1 [SIAIS249041, (2S,4R)-1-((S)-2-(4-(4-((E)-4-((4-((3-chloro-4-fluorophenyl)amino)-7-methoxyquinazolin-6-yl)amino)-4-oxobut-2-en-1-yl)piperazin-1-yl)-4-oxobutanamido)-3,3-dimethylbutanoyl)-4-hydroxy-N-(4-(4-methylthiazol-5-yl)benzyl)pyrrolidine-2-carboxamide]",38.3 nM,99 nM,,
"COc1cc2ncnc(Nc3ccc(F)c(Cl)c3)c2cc1NC(=O)/C=C/CN1CCN(C(=O)CCCCCCC(=O)N[C@H](C(=O)N2C[C@H](O)C[C@H]2C(=O)NCc2ccc(-c3scnc3C)cc2)C(C)(C)C)CC1 [SIAIS249043, (2S,4R)-1-((S)-2-(8-(4-((E)-4-((4-((3-chloro-4-fluorophenyl)amino)-7-methoxyquinazolin-6-yl)amino)-4-oxobut-2-en-1-yl)piperazin-1-yl)-8-oxooctanamido)-3,3-dimethylbutanoyl)-4-hydroxy-N-(4-(4-methylthiazol-5-yl)benzyl)pyrrolidine-2-carboxamide]",19.3 nM,70.6 nM,,
"COc1cc2ncnc(Nc3ccc(F)c(Cl)c3)c2cc1NC(=O)/C=C/CN1CCN(C(=O)CCOCCOCCC(=O)N[C@H](C(=O)N2C[C@H](O)C[C@H]2C(=O)NCc2ccc(-c3scnc3C)cc2)C(C)(C)C)CC1 [SIAIS249045, (2S,4R)-1-((S)-2-(3-(2-(3-(4-((E)-4-((4-((3-chloro-4-fluorophenyl)amino)-7-methoxyquinazolin-6-yl)amino)-4-oxobut-2-en-1-yl)piperazin-1-yl)-3-oxopropoxy)ethoxy)propanamido)-3,3-dimethylbutanoyl)-4-hydroxy-N-(4-(4-methylthiazol-5-yl)benzyl)pyrrolidine-2-carboxamide]",41.9 nM,691 nM,,
"COc1cc2ncnc(Nc3ccc(F)c(Cl)c3)c2cc1NC(=O)/C=C/CN1CCN(C(=O)CCCCCCNc2cccc3c2CN(C2CCC(=O)NC2=O)C3=O)CC1 (centres unmarked) [SIAIS249060, (E)-N-(4-((3-chloro-4-fluorophenyl)amino)-7-methoxyquinazolin-6-yl)-4-(4-(7-((2-(2,6-dioxopiperidin-3-yl)-1-oxoisoindolin-4-yl)amino)heptanoyl)piperazin-1-yl)but-2-enamide]",11.5 nM,16 nM,,
"COc1cc2ncnc(Nc3ccc(F)c(Cl)c3)c2cc1NC(=O)/C=C/CN1CCC(NC(=O)CCOCCOCCNc2cccc3c2C(=O)N(C2CCC(=O)NC2=O)C3=O)CC1 (centres unmarked) [SIAIS249086, (E)-N-(4-((3-chloro-4-fluorophenyl)amino)-7-methoxyquinazolin-6-yl)-4-(4-(3-(2-(2-((2-(2,6-dioxopiperidin-3-yl)-1,3-dioxoisoindolin-4-yl)amino)ethoxy)ethoxy)propanamido)piperidin-1-yl)but-2-enamide]",17 nM,34.2 nM,,
"C=CC(=O)Nc1cc2c(Nc3ccc(F)c(Cl)c3)ncnc2cc1OCCCN1CCN(C(=O)CCC(=O)NCCNc2cccc3c2C(=O)N(C2CCC(=O)NC2=O)C3=O)CC1 (centres unmarked) [SIAIS249100, 4-(4-(3-((6-acrylamido-4-((3-chloro-4-fluorophenyl)amino)quinazolin-7-yl)oxy)propyl)piperazin-1-yl)-N-(2-((2-(2,6-dioxopiperidin-3-yl)-1,3-dioxoisoindolin-4-yl)amino)ethyl)-4-oxobutanamide]",,,41 nM,88.5 nM
"C=CC(=O)Nc1cc2c(Nc3ccc(F)c(Cl)c3)ncnc2cc1OCCCN1CCN(C(=O)CCN2CCN(CCC(=O)N[C@H](C(=O)N3C[C@H](O)C[C@H]3C(=O)NCc3ccc(-c4scnc4C)cc3)C(C)(C)C)CC2)CC1 [SIAIS249101, (2S,4R)-1-((S)-2-(3-(4-(3-(4-(3-((6-acrylamido-4-((3-chloro-4-fluorophenyl)amino)quinazolin-7-yl)oxy)propyl)piperazin-1-yl)-3-oxopropyl)piperazin-1-yl)propanamido)-3,3-dimethylbutanoyl)-4-hydroxy-N-(4-(4-methylthiazol-5-yl)benzyl)pyrrolidine-2-carboxamide]",,,70 nM,58.5 nM
"COc1cc2ncnc(Nc3ccc(F)c(Cl)c3)c2cc1NC(=O)/C=C/CN1CCC(N2CCN(C(=O)CCC(=O)NCCOCCNc3cccc4c3C(=O)N(C3CCC(=O)NC3=O)C4=O)CC2)CC1 (centres unmarked) [SIAIS249103, (E)-N-(4-((3-chloro-4-fluorophenyl)amino)-7-methoxyquinazolin-6-yl)-4-(4-(4-(4-((2-(2-((2-(2,6-dioxopiperidin-3-yl)-1,3-dioxoisoindolin-4-yl)amino)ethoxy)ethyl)amino)-4-oxobutanoyl)piperazin-1-yl)piperidin-1-yl)but-2-enamide]",12.8 nM,20.4 nM,,

# Continued by falling IC50 ([1]; WST (CCK8)), values first:
IC50 ([1]; WST (CCK8)),IC50 ([2]; WST (CCK8)),"IC50 [1, 3]","IC50 [2, 3]",SMILES
11.5 nM,7.8 nM,,,"COc1cc2ncnc(Nc3ccc(F)c(Cl)c3)c2cc1NC(=O)/C=C/CN1CCN(C(=O)CCCNc2cccc3c2CN(C2CCC(=O)NC2=O)C3=O)CC1 (centres unmarked) [SIAIS249057, (E)-N-(4-((3-chloro-4-fluorophenyl)amino)-7-methoxyquinazolin-6-yl)-4-(4-(4-((2-(2,6-dioxopiperidin-3-yl)-1-oxoisoindolin-4-yl)amino)butanoyl)piperazin-1-yl)but-2-enamide]"
11.1 nM,1.2 nM,,,"COc1cc2ncnc(Nc3ccc(F)c(Cl)c3)c2cc1NC(=O)/C=C/CN1CCN(C(=O)CCCCCNc2cccc3c2CN(C2CCC(=O)NC2=O)C3=O)CC1 (centres unmarked) [SIAIS249059, (E)-N-(4-((3-chloro-4-fluorophenyl)amino)-7-methoxyquinazolin-6-yl)-4-(4-(6-((2-(2,6-dioxopiperidin-3-yl)-1-oxoisoindolin-4-yl)amino)hexanoyl)piperazin-1-yl)but-2-enamide]"
7.3 nM,4 nM,,,"COc1cc2ncnc(Nc3ccc(F)c(Cl)c3)c2cc1NC(=O)/C=C/CN1CCN(C(=O)CNc2cccc3c2CN(C2CCC(=O)NC2=O)C3=O)CC1 (centres unmarked) [SIAIS249056, (E)-N-(4-((3-chloro-4-fluorophenyl)amino)-7-methoxyquinazolin-6-yl)-4-(4-(2-((2-(2,6-dioxopiperidin-3-yl)-1-oxoisoindolin-4-yl)amino)acetyl)piperazin-1-yl)but-2-enamide]"
5.5 nM,9.9 nM,,,"COc1cc2ncnc(Nc3ccc(F)c(Cl)c3)c2cc1NC(=O)/C=C/CN1CCN(C(=O)CCCCNc2cccc3c2CN(C2CCC(=O)NC2=O)C3=O)CC1 (centres unmarked) [SIAIS249058, (E)-N-(4-((3-chloro-4-fluorophenyl)amino)-7-methoxyquinazolin-6-yl)-4-(4-(5-((2-(2,6-dioxopiperidin-3-yl)-1-oxoisoindolin-4-yl)amino)pentanoyl)piperazin-1-yl)but-2-enamide]"
4.6 nM,16 nM,,,"COc1cc2ncnc(Nc3ccc(F)c(Cl)c3)c2cc1NC(=O)/C=C/CN1CCN(C(=O)CCCCCNc2cccc3c2C(=O)N(C2CCC(=O)NC2=O)C3=O)CC1 (centres unmarked) [SIAIS249049, (E)-N-(4-((3-chloro-4-fluorophenyl)amino)-7-methoxyquinazolin-6-yl)-4-(4-(6-((2-(2,6-dioxopiperidin-3-yl)-1,3-dioxoisoindolin-4-yl)amino)hexanoyl)piperazin-1-yl)but-2-enamide]"
3.7 nM,10 nM,,,"COc1cc2ncnc(Nc3ccc(F)c(Cl)c3)c2cc1NC(=O)/C=C/CN1CCN(C(=O)CCCNc2cccc3c2C(=O)N(C2CCC(=O)NC2=O)C3=O)CC1 (centres unmarked) [SIAIS249062, (E)-N-(4-((3-chloro-4-fluorophenyl)amino)-7-methoxyquinazolin-6-yl)-4-(4-(4-((2-(2,6-dioxopiperidin-3-yl)-1,3-dioxoisoindolin-4-yl)amino)butanoyl)piperazin-1-yl)but-2-enamide]"
3.4 nM,57 nM,,,"COc1cc2ncnc(Nc3ccc(F)c(Cl)c3)c2cc1NC(=O)/C=C/CN1CCN(C(=O)CCOCCNc2cccc3c2C(=O)N(C2CCC(=O)NC2=O)C3=O)CC1 (centres unmarked) [SIAIS249046, (E)-N-(4-((3-chloro-4-fluorophenyl)amino)-7-methoxyquinazolin-6-yl)-4-(4-(3-(2-((2-(2,6-dioxopiperidin-3-yl)-1,3-dioxoisoindolin-4-yl)amino)ethoxy)propanoyl)piperazin-1-yl)but-2-enamide]"
3.2 nM,10.3 nM,,,"COc1cc2ncnc(Nc3ccc(F)c(Cl)c3)c2cc1NC(=O)/C=C/CN1CCN(C(=O)CCCCNc2cccc3c2C(=O)N(C2CCC(=O)NC2=O)C3=O)CC1 (centres unmarked) [SIAIS249048, (E)-N-(4-((3-chloro-4-fluorophenyl)amino)-7-methoxyquinazolin-6-yl)-4-(4-(5-((2-(2,6-dioxopiperidin-3-yl)-1,3-dioxoisoindolin-4-yl)amino)pentanoyl)piperazin-1-yl)but-2-enamide]"
